# Experimental data: patent publication US20230398137A1, “METHODS FOR LOWERING HBA1C LEVEL WITH A COMBINATION OF A BET BROMODOMAIN INHIBITOR AND A SODIUM DEPENDENT GLUCOSE TRANSPORT 2 INHIBITOR” (Resverlogix Corp., priority 2020, published 2023)
# Like-named read-outs stand apart in the source and are kept apart here.
# Columns and labels:
# HbA1c [1] = test: BETonMACE Phase 3 trial (NCT02586155), post-hoc analysis of HbA1c from baseline to last visit on treatment (LVT); assay type: in vivo, human
# Procedure: Apabetalone (RVX-208) was evaluated in a recently completed clinical Phase 3 trial (BETonMACE; NCT02586155) for the effect on MACE in type 2 diabetes patients with low HDL cholesterol (below 40 mg/dL for males and below 45 mg/dL for females) and a recent acute coronary syndrome (ACS) (preceding 7-90 days). All patients received high intensity statin treatment or maximum tolerated statin treatment, which was 20-40 mg daily or a maximum daily dose of 40 mg for rosuvastatin or 40-80 mg daily or a maximum daily dose of 80 mg for atorvastatin.
# Patients (n=2425) with ACS in the preceding 7 to 90 days, with type 2 diabetes and low HDL cholesterol (≤40 mg/dl for men, ≤45 mg/dl for women), receiving intensive or maximum-tolerated therapy with atorvastatin or rosuvastatin, were assigned in double-blind fashion to receive apabetalone 100 mg orally twice daily or matching placebo.
# Specifically, a total of 150 patients received both RVX-208 and an SGLT2 inhibitor; a total of 148 received an SGLT2 inhibitor, but no RVX-208; a total of 1062 received RVX-208, but no SGLT2 inhibitor; a total of 1058 received neither RVX-208 or an SGLT2 inhibitor.
# Patients who were randomized and received at least one dose of SGLT2 treatment while actively receiving study drug (RVX-208 or placebo) were counted as those receiving a combination of SGLT2 treatment with either RVX-208 or placebo. Patients receiving more than one drug therapy within the SGLT2 inhibitor class were counted only once based upon whichever drug therapy patients continued taking at the end of treatment with study drug (RVX-208 or placebo). In cases where patients were receiving more than one drug therapy within the SGLT2 inhibitor class at the end of treatment with study drug, whichever SGLT2 inhibitor therapy was received for longer was counted.
# The last visit on treatment (LVT) timepoint represented the longest study exposure duration for patients receiving RVX-208 or placebo with and without SGLT2 inhibitors and is the focus of this analysis.
# HbA1c [2] = conditions: T2DM and albuminuric CKD, cited from earlier work
# HbA1c [3] = conditions: over the duration of the trial; 95% CI −0.61 to −0.56; p<0.001; cited from earlier work
# HbA1c [4] = conditions: cited from earlier work
structure (smiles),measurement,setting,value
"COc1cc(OC)c2c(=O)[nH]c(-c3cc(C)c(OCCO)c(C)c3)nc2c1 [RVX-208, 2-(4-(2-hydroxyethoxy)-3,5-dimethylphenyl)-5,7-dimethoxyquinazolin-4(3H)-one]",ability to reduce levels of HbA1c (in words),HbA1c [1]; T2DM patients with a recent ACS,did not demonstrate the ability to statistically reduce levels of HbA1c
same,median HbA1c at baseline,"HbA1c [1]; T2DM patients with low HDL cholesterol and recent ACS on high intensity or maximum tolerated statin, baseline value of the group",7.3%
same,median HbA1c at the last visit on treatment (LVT),"HbA1c [1]; T2DM patients with recent ACS on statin, apabetalone 100 mg orally twice daily where given, median time to LVT about 2 years",7.3%
same,median change of HbA1c from baseline to LVT,"HbA1c [1]; T2DM patients with recent ACS, FIG. 3",+0.20%
same,mean change of HbA1c from baseline to LVT,"HbA1c [1]; T2DM patients with recent ACS, FIG. 4",+0.22%
Cc1ccc([C@@H]2O[C@H](CO)[C@@H](O)[C@H](O)[C@H]2O)cc1Cc1ccc(-c2ccc(F)cc2)s1 [canagliflozin],least-squares mean level of HbA1c lower than in the placebo group by,"HbA1c [2]; at 13 weeks, 95% CI 0.26 to 0.37",0.31%
same,overall mean difference in the reduction of HbA1c versus placebo,"HbA1c [2]; throughout the trial, 95% CI 0.20 to 0.31",0.25%
same,mean difference in HbA1c between drug group and placebo group,HbA1c [3],−0.58%
OC[C@H]1O[C@@H](c2ccc(Cl)c(Cc3ccc(O[C@H]4CCOC4)cc3)c2)[C@H](O)[C@@H](O)[C@@H]1O [empagliflozin],reduction of HbA1c compared to placebo (adjusted mean difference),"HbA1c [4]; 10-mg group, after 12 weeks, 95% CI −0.58 to −0.49",0.54%
same,adjusted mean difference in HbA1c levels versus placebo,"HbA1c [4]; 10-mg group, week 94, 95% CI −0.48 to −0.36",−0.42%
same,adjusted mean difference in HbA1c levels versus placebo,"HbA1c [4]; 10-mg group, week 206, 95% CI −0.40 to −0.08",−0.24%
same,adjusted mean difference in HbA1c compared to placebo,"HbA1c [4]; 25-mg group, after 12 weeks, 95% CI −0.64 to −0.55",−0.60 percentage points
same,adjusted mean difference in HbA1c levels versus placebo,"HbA1c [4]; 25-mg group, week 94, 95% CI −0.54 to −0.41",−0.47%
same,adjusted mean difference in HbA1c levels versus placebo,"HbA1c [4]; 25-mg group, week 206, 95% CI −0.51 to −0.20",−0.36%
